The nature of this data set: MALDI-TOF screening of Ni^2+ dependent hydrolysis in a combinatorial peptide library. It counts as physicochemical. The conditions noted are these: CH3CO-Gly-Ala-Ser-X-His-Z-Lys-Phe-Leu-NH2 library, Ni^2+ 2 mM, pH 8.2, 10 mM Tris, score=24/tm. From the text: The sequence CH3CO-Gly-Ala-Ser/Thr-X-His-Z-Lys-Phe-Leu-NH2 was designed so that the fixed R1 and R2 sequences, CH3CO-Gly-Ala, and Lys-Phe-Leu-NH2, respectively, allowed optimal detection by MALDI-TOF mass spectrometry of substrates as well as expected products, Ser/Thr-X-His-Z-Lys-Phe-Leu-NH2 and assured separation between the clusters of signals for substrates and products in sublibraries (see below).
Residues in position X included all amino acids commonly present in proteins, except for Asp, Glu, and Cys. The former two contain carboxylates in their side chains, which may bind Ni^2+ in a way which would quench or slow down the hydrolysis reaction. The Cys residue may do the same, and also may engage in side reactions with Ni^2+ ions, including redox processes (for example see Bal and Kasprzak, Toxicol. Lett. 2002, 127, 55-62). Only the Cys residue was eliminated from position Z, for the same reasons.
The synthesis of the library was accomplished on a RINK amide resin (Novabiochem) on a 800 mg scale, according to a typical Fmoc protocol (Fields, Meth. Enzymol. Vol. 289). The resin-attached Leu-Phe-Lys peptide was synthesised first and coupled with the isokinetic mixture of 19 amino acids selected for position Z, and then with the H is residue. The resin carrying the library of pentapeptides was divided into Ser and Thr halves at this stage, and each of these halves into 17 portions, which were coupled with individual amino acids selected for position X. The coupling with Ser or Thr as appropriate, additions of Ala and Gly residues, acetylation of Gly, deprotection and cleavage from the resin were accomplished subsequently. Each of the resulting 34 samples of sublibraries randomized at position X was separated into two portions, one for the reaction at 37° C. and another for the reaction at 45° C. The hydrolysis reactions were accomplished in 10 mM Tris buffers at pH 8.2. The total concentrations of peptide mixtures and Ni^2+ ions were 1 mM and 2 mM, respectively. The pH for the reaction was chosen as selective for highly reactive sequences.
The detection of reaction products was accomplished with the use of a MALDI-TOF mass spectrometer (Micromass). The aliquots were removed from reaction mixtures and measured by MS at 2, 4, 6, and 8 hours of incubation. The progress of reaction was evaluated by visual detection in mass spectra of appearance of signals corresponding to expected products of hydrolysis, Ser/Thr-X-His-Z-Lys-Phe-Leu-NH2, at given measurement times, tm. […] Also the decrease of signals of substrates was controlled in these cases.
Residues X and Z were then sorted according to various molecular parameters, describing their physical properties (Carugo, In Silico Biol. 2003, 3, 0035). […] The Ser library provided a higher number of reactive peptides than the Thr library. Following the additivity of effects, the scores were also summed up in lines and columns of Table 1A-D, thereby creating final rankings for preferred substitutions in positions X and Z.

Regarding Ac-GASFHWKFL-NH2 [SFHW], the “hydrolysis score from MALDI-TOF screening” value (“hydrolysis score” for short) reads like this: (37° C.) 4 (a score of 4 for detection at 6 hours); (45° C.) 6 (a score of 6 for detection at 4 hours).
For the substance Ac-GASFHYKFL-NH2 [SFHY], the “hydrolysis score” value (37° C.) is reported as 3 (a score of 3 for detection at 8 hours) and the “hydrolysis score” value (45° C.) is on record as 6 (a score of 6 for detection at 4 hours).
As to Ac-GASGHAKFL-NH2 [SGHA], the “hydrolysis score” value runs as follows: (37° C.) 0 (a score of 0 if no trace of the product of hydrolysis was seen after 8 hours of incubation); (45° C.) 0 (a score of 0 if no trace of the product of hydrolysis was seen after 8 hours of incubation).
Ac-GASGHDKFL-NH2 [SGHD]: the “hydrolysis score” value by setting is: (37° C.) 0 (a score of 0 if no trace of the product of hydrolysis was seen after 8 hours of incubation); (45° C.) 0 (a score of 0 if no trace of the product of hydrolysis was seen after 8 hours of incubation).
As for Ac-GASGHEKFL-NH2 [SGHE], the “hydrolysis score” value runs as follows: (37° C.) 0 (a score of 0 if no trace of the product of hydrolysis was seen after 8 hours of incubation); (45° C.) 0 (a score of 0 if no trace of the product of hydrolysis was seen after 8 hours of incubation).
On to Ac-GASGHFKFL-NH2 [SGHF], for which the “hydrolysis score” value is 0 (a score of 0 if no trace of the product of hydrolysis was seen after 8 hours of incubation) (37° C.) and 0 (a score of 0 if no trace of the product of hydrolysis was seen after 8 hours of incubation) (45° C.).
With Ac-GASGHGKFL-NH2 [SGHG], the “hydrolysis score” value runs as follows: (37° C.) 0 (a score of 0 if no trace of the product of hydrolysis was seen after 8 hours of incubation); (45° C.) 0 (a score of 0 if no trace of the product of hydrolysis was seen after 8 hours of incubation).
Consider Ac-GASGHHKFL-NH2 [SGHH], for which the “hydrolysis score” value reads like this: (37° C.) 0 (a score of 0 if no trace of the product of hydrolysis was seen after 8 hours of incubation); (45° C.) 0 (a score of 0 if no trace of the product of hydrolysis was seen after 8 hours of incubation).
For the substance Ac-GASGHIKFL-NH2 [SGHI], the “hydrolysis score” value reads like this: (37° C.) 0 (a score of 0 if no trace of the product of hydrolysis was seen after 8 hours of incubation); (45° C.) 3 (a score of 3 for detection at 8 hours).
As for Ac-GASGHKKFL-NH2 [SGHK], the “hydrolysis score” value (37° C.) was 0 (a score of 0 if no trace of the product of hydrolysis was seen after 8 hours of incubation) and the “hydrolysis score” value (45° C.) is 3 (a score of 3 for detection at 8 hours).
Consider Ac-GASGHLKFL-NH2 [SGHL], for which the “hydrolysis score” value (37° C.) is recorded as 0 (a score of 0 if no trace of the product of hydrolysis was seen after 8 hours of incubation) and the “hydrolysis score” value (45° C.) is listed as 3 (a score of 3 for detection at 8 hours).
Regarding Ac-GASGHMKFL-NH2 [SGHM], the “hydrolysis score” value reads like this: (37° C.) 0 (a score of 0 if no trace of the product of hydrolysis was seen after 8 hours of incubation); (45° C.) 0 (a score of 0 if no trace of the product of hydrolysis was seen after 8 hours of incubation).
Regarding Ac-GASGHNKFL-NH2 [SGHN], the “hydrolysis score” value by setting is: (37° C.) 0 (a score of 0 if no trace of the product of hydrolysis was seen after 8 hours of incubation); (45° C.) 0 (a score of 0 if no trace of the product of hydrolysis was seen after 8 hours of incubation).
On to Ac-GASGHPKFL-NH2 [SGHP], for which the “hydrolysis score” value (37° C.) is 0 (a score of 0 if no trace of the product of hydrolysis was seen after 8 hours of incubation) and the “hydrolysis score” value (45° C.) is 0 (a score of 0 if no trace of the product of hydrolysis was seen after 8 hours of incubation).
For the substance Ac-GASGHQKFL-NH2 [SGHQ], the “hydrolysis score” value reads like this: (37° C.) 0 (a score of 0 if no trace of the product of hydrolysis was seen after 8 hours of incubation); (45° C.) 0 (a score of 0 if no trace of the product of hydrolysis was seen after 8 hours of incubation).
With Ac-GASGHRKFL-NH2 [SGHR], the “hydrolysis score” value was 3 (a score of 3 for detection at 8 hours) (37° C.) and 3 (a score of 3 for detection at 8 hours) (45° C.).
As to Ac-GASGHSKFL-NH2 [SGHS], the “hydrolysis score” value runs as follows: (37° C.) 0 (a score of 0 if no trace of the product of hydrolysis was seen after 8 hours of incubation); (45° C.) 0 (a score of 0 if no trace of the product of hydrolysis was seen after 8 hours of incubation).
Regarding Ac-GASGHTKFL-NH2 [SGHT], the “hydrolysis score” value reads like this: (37° C.) 0 (a score of 0 if no trace of the product of hydrolysis was seen after 8 hours of incubation); (45° C.) 0 (a score of 0 if no trace of the product of hydrolysis was seen after 8 hours of incubation).
As for Ac-GASGHVKFL-NH2 [SGHV], the “hydrolysis score” value is recorded as 0 (a score of 0 if no trace of the product of hydrolysis was seen after 8 hours of incubation) (37° C.) and 3 (a score of 3 for detection at 8 hours) (45° C.).
Take Ac-GASGHWKFL-NH2 [SGHW]: the “hydrolysis score” value runs as follows: (37° C.) 3 (a score of 3 for detection at 8 hours); (45° C.) 4 (a score of 4 for detection at 6 hours).
Ac-GASGHYKFL-NH2 [SGHY]: the “hydrolysis score” value (37° C.) was 0 (a score of 0 if no trace of the product of hydrolysis was seen after 8 hours of incubation) and the “hydrolysis score” value (45° C.) is 0 (a score of 0 if no trace of the product of hydrolysis was seen after 8 hours of incubation).
Take Ac-GASHHDKFL-NH2 [SHHD]: the “hydrolysis score” value runs as follows: (37° C.) 0 (a score of 0 if no trace of the product of hydrolysis was seen after 8 hours of incubation); (45° C.) 0 (a score of 0 if no trace of the product of hydrolysis was seen after 8 hours of incubation).
With Ac-GASHHEKFL-NH2 [SHHE], the “hydrolysis score” value (37° C.) was 0 (a score of 0 if no trace of the product of hydrolysis was seen after 8 hours of incubation) and the “hydrolysis score” value (45° C.) is on record as 0 (a score of 0 if no trace of the product of hydrolysis was seen after 8 hours of incubation).
Regarding Ac-GASHHFKFL-NH2 [SHHF], the “hydrolysis score” value runs as follows: (37° C.) 3 (a score of 3 for detection at 8 hours); (45° C.) 3 (a score of 3 for detection at 8 hours).
On to Ac-GASHHGKFL-NH2 [SHHG], for which the “hydrolysis score” value runs as follows: (37° C.) 3 (a score of 3 for detection at 8 hours); (45° C.) 0 (a score of 0 if no trace of the product of hydrolysis was seen after 8 hours of incubation).
Regarding Ac-GASHHHKFL-NH2 [SHHH], the “hydrolysis score” value runs as follows: (37° C.) 0 (a score of 0 if no trace of the product of hydrolysis was seen after 8 hours of incubation); (45° C.) 0 (a score of 0 if no trace of the product of hydrolysis was seen after 8 hours of incubation).
Turning to Ac-GASHHIKFL-NH2 [SHHI], the “hydrolysis score” value by setting is: (37° C.) 6 (a score of 6 for detection at 4 hours); (45° C.) 6 (a score of 6 for detection at 4 hours).
Ac-GASHHKKFL-NH2 [SHHK]: the “hydrolysis score” value (37° C.) is 6 (a score of 6 for detection at 4 hours) and the “hydrolysis score” value (45° C.) is recorded as 12 (a score of 12, if it was seen to be partially hydrolysed at 2 hours).
As to Ac-GASHHLKFL-NH2 [SHHL], the “hydrolysis score” value is on record as 6 (a score of 6 for detection at 4 hours) (37° C.) and 6 (a score of 6 for detection at 4 hours) (45° C.).
Take Ac-GASHHMKFL-NH2 [SHHM]: the “hydrolysis score” value is, setting by setting: (37° C.) 0 (a score of 0 if no trace of the product of hydrolysis was seen after 8 hours of incubation); (45° C.) 0 (a score of 0 if no trace of the product of hydrolysis was seen after 8 hours of incubation).

The values above are taken from patent publication US8969516B2, “Method of hydrolysis of peptide bond” (priority 2006, dated 2015).
